{
  "source": "patent US11679168B2",
  "about": "“Caspase-3-triggered molecular self-assembling PET probes and uses thereof” (The Board of Trustees of the Leland Stanford Junior …, priority 2018, dated 2023)",
  "key": {"[1]": {"test_system": "caspase-3 activity in H460 cells", "assay": "Confocal imaging of cisplatin-treated H460 cells with C-SNAF4-Cy5", "assay_type": "cell-based, human", "settings": "50 μM", "experimental": "Confocal Microscopy Imaging of Cisplatin-treated H460 Cells With C-SNAF4-Cy5: NCI-H460 cells at 70% confluency were either left naïve or treated with cisplatin (10 μM) for 24 hours. After removal of the medium, cells were incubated with 2 μM C-SNAF4-Cy5 at 37° C. for 24 hours. For the inhibition study, cells were first incubated with pan-caspase inhibitor Z-VAD-fmk (50 μM, 30 min) before incubation with C-SNAF4-Cy5."}, "H460 cells": {"test_system": "H460 cells", "assay": "MTS cell viability assay in H460 cells", "assay_type": "cell-based, human", "experimental": "(§1) FIG. 13 illustrates cellular toxicity analysis in H460 and H1299 cells. Cells were incubated at different concentration of [^19F]-C-SNAT4 over 24 hours. The viability of cells was measured using an MTS assay.\nFIG. 14 illustrates a Cisplatin dose response curves were assessed in H460 cells by MTS assay. The curves generated by GraphPad Prism software.\nFIG. 36A illustrates the toxicity of C-SNAF4-Cy5 in heathy and apoptotic NCI-H460 measured with MTS assay (37° C., 24 h) in heathy H460 cells.\nFIG. 36B illustrates the toxicity of C-SNAF4-Cy5 in H460 cells treated with cisplatin (1 μM, 24 hours) followed by incubation with C-SNAF4-Cy5 (37° C., 24 h).\nCell study: All cell lines were assessed to be pathogen-free prior to use in this study. […] Cell viability was assessed with CellTiter 96.RM AQueous One Solution Cell Proliferation Assay (MTS) kit from Promega (Madison, Wis., USA). […] After 60 min of incubation at 37° C., the absorbance was read at 490 nm with a 96 well plate reader from BMG LABTECH GmbH (Ortenberg, Germany)."}, "H460 tumor": {"test_system": "H460 tumor", "assay": "Caliper measurement of H460 tumor volumes", "assay_type": "in vivo, mice", "settings": "H460, high dose (9 mg/kg every other day x3, i.v.), day 13 after implantation", "experimental": "(§2) FIG. 5B illustrates caliper measurement of H460 and H1299 tumor volumes in saline and drug-treated mice. Measurements are time after cell implantation, with high dose of cisplatin-treated (Intravenous injection, 9 mg/kg every other day for three times) in H460 and in H1299 tumor-bearing mice as arrow indicated (arrow). n=5 for each group.\n(§3) Animal model and probe administration: For subcutaneous tumor models, H460 or H1299 (2×10^6 cells in 100 μl of PBS) were injection subcutaneously on the back of female nu/nu nude mice (aged 6 to 8 weeks; Charles River Laboratories). Tumor dimensions were measured periodically using a caliper (by the same researcher), with tumor volumes calculated by the following equation: volume=a×b×c/2, where a, b, and c represent three orthogonal axis of the tumor. Treatment-response analysis was performed 24 h after drug treatment. For all other experiments, animals were culled 26 h after therapy and tissues excised for analysis. For chemotherapy mouse model, tumors were grown to about 150 mm^3, and then treatment that consisted of cisplatin (Sigma-Aldrich; Low dose: 3 mg/kg; high dose: 9 mg/kg) or saline was initiated through intravenous administration, every other day for three times. Total mouse body weight and tumor size were measured every other day. Treat or left untreated. […]"}, "H1299 tumor": {"test_system": "H1299 tumor", "assay": "Caliper measurement of H1299 tumor volumes", "assay_type": "in vivo, mice", "settings": "H1299, high dose (9 mg/kg every other day x3, i.v.), day 21 after implantation", "experimental": "as §2, §3"}, "caspase-3": {"target": "T1, caspase-3 (Homo sapiens, UniProt P42574)", "T1 construct": "before and after addition of active caspase-3 (Casp3) enzyme; purchased Sigma; host or cells: E. coli", "T1 sequence (P42574 29-175 limits assumed)": "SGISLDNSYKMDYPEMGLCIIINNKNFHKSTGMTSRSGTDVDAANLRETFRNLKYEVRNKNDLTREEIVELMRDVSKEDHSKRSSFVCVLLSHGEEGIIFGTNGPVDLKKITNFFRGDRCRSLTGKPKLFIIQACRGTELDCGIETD", "T1 sequence (P42574 176-277 limits assumed)": "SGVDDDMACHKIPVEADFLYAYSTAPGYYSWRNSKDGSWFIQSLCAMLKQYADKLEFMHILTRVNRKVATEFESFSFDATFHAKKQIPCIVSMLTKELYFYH", "assay": "Nanoaggregation of [19F]-C-SNAT4 after caspase-3 activation (DLS, TEM)", "assay_type": "biochemical", "experimental": "FIG. 1C illustrates the TEM images of [^19F]-C-SNAT4 before and after addition of active caspase-3 (Casp3) enzyme. [^19F]-C-SNAT4 (20 μM) was incubated with caspase-3 (2×10^−3U mL^−1, human, recombinant from E. coli, Sigma) in caspase buffer at 37° C. overnight.\nFIG. 12 illustrates in vitro validation and nanoaggregation characterization of [^19F]-C-SNAT4. [^19F]-C-SNAT4 and formation of cycl-[^19F]-SNAT4 after [^19F]-C-SNAT4 incubated with caspase-3 were analyzed by (A) HPLC, (B) DLS of [^19F]-C-SNAT4 without and with caspase-3 incubation. [^19F]-C-SNAT4 (20 μM) was incubated with caspase-3 (2×10^−3U mL^−1, human, recombinant from E. coli, Sigma) in caspase buffer (50 mM HEPES, 100 mM NaCl, 1 mM EDTA, 10 mM TCEP, 10% glycerol and 0.1% CHAPS at pH 7.4) at 37° C. overnight."}, "H1299 cells": {"test_system": "H1299 cells", "assay": "MTS cell viability assay in H1299 cells", "assay_type": "cell-based, human", "settings": "H1299, up to 100 μM, 24 hours", "experimental": "as §1\nCell study: All cell lines were assessed to be pathogen-free prior to use in this study. Human H460 and H1299 lung adenocarcinoma cells non-small cell lung cancer H460 (ATCC) and H1299 (ATCC) were cultured in Dulbecco's modified Eagle's medium (DMEM) (Invitrogen), supplement with 10% v/v fetal bovine serum (Life Technologies Inc.) and 1% v/v penicillin-streptomycin (100 IU/ml, […]; Life Technologies Inc.) at 37° C. in a humidified atmosphere maintained at 5% CO2. X-radiation was performed with an X-ray generator (0.2 mm Cu and 1 mm Al filter, 150 kV, Hitachi). The irradiation was carried out at room temperature at a dose rate of 0.2 Gy/min. Cell viability was assessed with CellTiter 96.RM AQueous One Solution Cell Proliferation Assay (MTS) kit from Promega (Madison, Wis., USA). Briefly, 100 μl aliquots of the treated or untreated cell suspension were seeded into 96-well polystyrene tissue culture plates and 20 μl of assay reagent was added to each well. After 60 min of incubation at 37° C., the absorbance was read at 490 nm with a 96 well plate reader from BMG LABTECH GmbH (Ortenberg, Germany)."}, "[2]": {"assay": "Condensation kinetics of aminothiols with CBT (HPLC assay)", "assay_type": "physicochemical", "settings": "substituted cysteine analogues with CBT, FIG. 50B", "experimental": "General Methods for Measuring Kinetics of Condensation Reactions Between Aromatic Nitriles and Aminothiols: The 2nd order rate constants for condensation reactions between aromatic nitriles and aminothiols were measured by using HPLC assays. To solutions of aromatic nitriles (100 μM) in phosphate buffered saline (PBS) (1×, pH=7.4) were added aminothiol (1.0 equiv.), TCEP (2.0 equiv.) and NaHCO3 (3 equiv.). The reaction solutions were kept at room temperature (23° C.) and monitored by HPLC at different time points. The conversion rates were calculated using the peak integrals of aromatic nitriles and the condensation products at 254 nm. Based on 2nd order reaction law, 1/[aromatic nitrile] was plotted against time and the slope of the linear regression result gives the 2nd order rate constant."}, "[3]": {"settings": "L-cysteine with CBT; reported in Reference 13; cited from earlier work"}},
  "note": "Peptide text beside a SMILES is read from it. * marks the point of attachment. Cbz = O=C(OCc1ccccc1)*; CH2F = FC*",
  "data": [
    {"smiles": "COC(=O)C[C@H](NC(=O)[C@H](C)NC(=O)[C@@H](NC(=O)OCc1ccccc1)C(C)C)C(=O)CF", "note": "[Z-VAD-fmk] (Cbz-Val-Ala-Asp(OMe)-CH2F)", "values": [
      {"measurement": "effect on C-SNAF4-Cy5 fluorescence", "setting": "[1]", "value": "Fluorescence abolishment"}
    ]},
    {"smiles": "N.N.[Cl][Pt][Cl]", "note": "[cisplatin]", "values": [
      {"measurement": "IC50", "setting": "H460 cells; H460, MTS assay, read-out: half-maximal inhibitory concentration (IC50)", "value": 9.51, "unit": "µM"},
      {"measurement": "tumor volume", "setting": "H460 tumor", "value": "690.8±88.6", "unit": "mm^3"},
      {"measurement": "tumor volume", "setting": "H1299 tumor", "value": "1348.5±356.0", "unit": "mm^3"}
    ]},
    {"smiles": "CCSSCC(NC(=O)C(CC(=O)O)NC(=O)C(NC(=O)C(CCC(=O)O)NC(=O)C(CC(=O)O)NC(C)=O)C(C)C)C(=O)NCC(=O)NC(Cc1cn(CCOCCOCCOCCF)nn1)C(=O)NCc1ccc(C(=O)NCCCOc2cnc(C#N)nc2)cc1", "note": "(stereo not drawn) [[^19F]-C-SNAT4]", "values": [
      {"measurement": "average size of nanoparticles (DLS)", "setting": "caspase-3", "value": "around 200 nm"},
      {"measurement": "cytotoxicity", "setting": "H460 cells; H460, up to 100 μM, 24 hours", "value": "no toxicity"},
      {"measurement": "cytotoxicity", "setting": "H1299 cells", "value": "no toxicity"}
    ]},
    {"smiles": "N[C@@H](CS)C(=O)O", "note": "[L-cysteine]", "values": [
      {"measurement": "second-order reaction rate", "setting": "[2]", "value": 3.2, "unit": "M⁻¹ s⁻¹"},
      {"measurement": "2nd order rate constant k", "setting": "[3]", "value": 2.9, "unit": "M⁻¹ s⁻¹"}
    ]}
  ]
}
